Read-outs that look alike come from different tables or passages of the source.
How the values were obtained:
[1] = tested on: ovarian cancer cell lines; assay: Cell based assay, cell viability (CellTiter-Glo), ovarian cancer cell lines; details: Homo sapiens; OVCAR-3 cells
Description: (§1) Commercially available bladder cancer, prostate cancer, lung cancer, breast cancer, blood cancer, pancreatic cancer, colorectal cancer, brain cancer, neuroblastoma, melanoma, liver cancer, cervical carcinoma, ovarian cancer, renal cancer, and papilloma cell lines were each treated with trypsin-EDTA and cultured, followed by being seeded in each well of a 96 well plate. After 24 hours of treatment at constant temperature, the respective cells were treated with the candidate compound so that a final concentration became 0 to 2 μM. The treated cells were additionally cultured for 72 hours, and cell viability was measured by using an ATP detection method (CellTiter-Glo® Luminescent Cell Viability Assay, Promega).

[2] = tested on: colorectal cancer cell lines (e.g. DLD-1, HCT 116, SW620, HCT-15, HCT-8, RKO); assay: Cell based assay, cell viability (CellTiter-Glo), colorectal cancer cell lines
Description: as §1

[3] = tested on: melanoma cell lines; assay: Cell based assay, cell viability (CellTiter-Glo), melanoma cell lines; details: Homo sapiens; LOX-IMVI cell line
Description: as §1

[4] = Homo sapiens, DLD-1, 72 hours treatment, read-out: IC50, colorectal cancer cell line DLD-1
[5] = Homo sapiens, HCT 116, 72 hours treatment, read-out: IC50, colorectal cancer cell line HCT 116
[6] = Homo sapiens, HCT-8, 72 hours treatment, read-out: IC50, colorectal cancer cell line HCT-8
[7] = Homo sapiens, HCT-15, 72 hours treatment, read-out: IC50, colorectal cancer cell line HCT-15
[8] = Homo sapiens, HT-29, 72 hours treatment, read-out: IC50, colorectal cancer cell line HT-29
[9] = Homo sapiens, LoVo, 72 hours treatment, read-out: IC50, colorectal cancer cell line LoVo
[10] = Homo sapiens, SW480, 72 hours treatment, read-out: IC50, colorectal cancer cell line SW480
[11] = Homo sapiens, SW-620, SW620, 72 hours treatment, read-out: IC50, colorectal cancer cell line SW620
[12] = RKO, 72 hours treatment, read-out: IC50, colorectal cancer cell line RKO
[13] = Homo sapiens, DLD-1 cells, 72 hours treatment, read-out: IC50, colorectal cancer cell line DLD-1
[14] = Homo sapiens, HCT 116 cells, 72 hours treatment, read-out: IC50, colorectal cancer cell line HCT 116
[15] = Homo sapiens, HCT-8 cells, 72 hours treatment, read-out: IC50, colorectal cancer cell line HCT-8
[16] = Homo sapiens, HCT-15 cells, 72 hours treatment, read-out: IC50, colorectal cancer cell line HCT-15
[17] = Homo sapiens, HT-29 cells, 72 hours treatment, read-out: IC50, colorectal cancer cell line HT-29
[18] = Homo sapiens, LoVo cells, 72 hours treatment, read-out: IC50, colorectal cancer cell line LoVo
[19] = Homo sapiens, RKO cells, 72 hours treatment, read-out: IC50, colorectal cancer cell line RKO
[20] = Homo sapiens, SW480 cells, 72 hours treatment, read-out: IC50, colorectal cancer cell line SW480
[21] = Homo sapiens, SW-620, SW620 cells, 72 hours treatment, read-out: IC50, colorectal cancer cell line SW620

| IC50 [1] [µM] | IC50 [2, 4] [µM] | IC50 [2, 5] [µM] | IC50 [2, 6] [µM] | IC50 [2, 7] [µM] | IC50 [2, 8] [µM] | IC50 [2, 9] [µM] | IC50 [2, 10] [µM] | IC50 [2, 11] [µM] | IC50 [2, 12] [µM] | IC50 [3] [µM] | IC50 [2, 13] [µM] | IC50 [2, 14] [µM] | IC50 [2, 15] [µM] | IC50 [2, 16] [µM] | IC50 [2, 17] [µM] | IC50 [2, 18] [µM] | IC50 [2, 19] [µM] | IC50 [2, 20] [µM] | IC50 [2, 21] [µM] | SMILES |
| --- | --- | --- | --- | --- | --- | --- | --- | --- | --- | --- | --- | --- | --- | --- | --- | --- | --- | --- | --- | --- |
| 0.7 | 0.77 | 1.09 | 1.35 | 1.1 | > 10 | 2.02 | 1.22 | 1.16 | 1.12 | 0.88 |  |  |  |  |  |  |  |  |  | CC(=O)c1c([S+]([O-])Cc2ccccc2C#N)[nH]c2c(Br)ccc(Cl)c2c1=O (stereo not shown) [Compound 58, 2-(((3-acetyl-8-bromo-5-chloro-4-oxo-1,4-dihydroquinolin-2-yl)sulfinyl)methyl)benzonitrile] |
| > 2 | > 2 | > 2 | > 2 | > 2 | > 10 | > 2 | > 2 | > 2 | > 2 | > 2 |  |  |  |  |  |  |  |  |  | COCSc1[nH]c2c(Br)ccc(Cl)c2c(=O)c1C(C)=O [Compound 61, 3-acetyl-8-bromo-5-chloro-2-((methoxymethyl)thio)quinolin-4(1H)-one] |
| > 2 | > 2 | > 2 | > 2 | > 2 | > 10 | > 2 | > 2 | > 2 | > 2 | > 2 |  |  |  |  |  |  |  |  |  | CC(=O)c1c(S)[nH]c2c(Br)ccc(Cl)c2c1=O [Compound 62, 3-acetyl-8-bromo-5-chloro-2-mercaptoquinolin-4(1H)-one] |
| > 2 | > 2 | > 2 | > 2 | > 2 | > 10 | > 2 | > 2 | > 2 | > 2 | > 2 |  |  |  |  |  |  |  |  |  | CC(=O)c1c([S+]([O-])Cc2ccc(C(=O)c3ccccc3)cc2)[nH]c2c(Br)ccc(Cl)c2c1=O (stereo not shown) [Compound 63, 3-acetyl-2-((4-benzoylbenzyl)sulfinyl)-8-bromo-5-chloroquinolin-4(1H)-one] |
| > 2 | > 2 | > 2 | > 2 | > 2 | > 10 | > 2 | > 2 | > 2 | > 2 | > 2 |  |  |  |  |  |  |  |  |  | CC(=O)c1c([S+]([O-])CC#N)[nH]c2c(Br)ccc(Cl)c2c1=O (stereo not shown) [Compound 65, 2-((3-acetyl-8-bromo-5-chloro-4-oxo-1,4-dihydroquinolin-2-yl)sulfinyl)acetonitrile] |
| > 2 | > 2 | > 2 | > 2 | > 2 | > 10 | > 2 | > 2 | > 2 | > 2 | > 2 |  |  |  |  |  |  |  |  |  | CC(=O)c1c(SCC#N)[nH]c2c(Br)ccc(Cl)c2c1=O [Compound 66, 2-((3-acetyl-8-bromo-5-chloro-4-oxo-1,4-dihydroquinolin-2-yl)thio)acetonitrile] |
| > 2 | > 2 | > 2 | > 2 | > 2 | > 10 | > 2 | > 2 | > 2 | > 2 | > 2 |  |  |  |  |  |  |  |  |  | CC(=O)c1c(S/C=C\C(=O)O)[nH]c2c(Br)ccc(Cl)c2c1=O [Compound 67, (Z)-3-((3-acetyl-8-bromo-5-chloro-4-oxo-1,4-dihydroquinolin-2-yl)thio)acrylic acid] |
| 1.16 | 0.78 | 1.09 | 1.3 | 0.98 | > 2 | > 2 | 1.75 | 1.66 | 1.33 | 0.96 |  |  |  |  |  |  |  |  |  | CC(=O)c1c([S+]([O-])Cc2ccc(S(F)(F)(F)(F)F)cc2)[nH]c2c(Br)ccc(Cl)c2c1=O (stereo not shown) [Compound 68, 3-acetyl-8-bromo-5-chloro-2-((4-(pentafluoro-16-sulfanyl)benzyl)sulfinyl)quinolin-4(1H)-one] |
| 1.13 | 0.92 | 1.52 | 1.91 | 1.42 | > 10 | > 2 | > 2 | 1.77 | 1.54 | 1.12 |  |  |  |  |  |  |  |  |  | CC(=O)c1c([S+]([O-])Cc2ccc(S(F)(F)(F)(F)F)cc2F)[nH]c2c(Br)ccc(Cl)c2c1=O (stereo not shown) [Compound 69, 3-acetyl-8-bromo-5-chloro-2-((2-fluoro-4-(pentafluoro-16-sulfanyl)benzyl)sulfinyl)quinolin-4(1H)-one] |
| 1.13 | 0.92 | 1.45 | 1.7 | 1.24 | > 10 | > 2 | 1.8 | 1.68 | 1.29 | 1.16 |  |  |  |  |  |  |  |  |  | CC(=O)c1c([S+]([O-])Cc2cccc(S(F)(F)(F)(F)F)c2)[nH]c2c(Br)ccc(Cl)c2c1=O (stereo not shown) [Compound 77, 3-acetyl-8-bromo-5-chloro-2-((3-(pentafluoro--sulfanyl)benzyl)sulfinyl)quinolin-4(1H)-one] |
| > 2 | > 2 | > 2 | > 2 | > 2 | > 10 | > 2 | > 2 | > 2 | > 2 | > 2 |  |  |  |  |  |  |  |  |  | CC(=O)c1c([S+]([O-])Cc2ccc(SC(F)(F)F)cc2)[nH]c2c(Cl)ccc(Cl)c2c1=O (stereo not shown) [Compound 79, 3-acetyl-5,8-dichloro-2-((4-((trifluoromethyl)thio)benzyl)sulfinyl)quinolin-4(1H)-one] |
| > 2 | > 2 | > 2 | > 2 | > 2 | > 10 | > 2 | > 2 | > 2 | > 2 | > 2 |  |  |  |  |  |  |  |  |  | CC(=O)c1c([S+]([O-])Cc2ccc(S(F)(F)(F)(F)F)cc2)[nH]c2c(F)ccc(F)c2c1=O (stereo not shown) [Compound 80, 3-acetyl-5,8-difluoro-2-((4-(pentafluoro--sulfanyl)benzyl)sulfinyl)quinolin-4(1H)-one] |
| > 2 | > 2 | > 2 | > 2 | > 2 | > 10 | > 2 | > 2 | > 2 | > 2 | > 2 |  |  |  |  |  |  |  |  |  | CC(=O)c1c([S+]([O-])Cc2ccc(C(F)(F)F)o2)[nH]c2c(F)ccc(F)c2c1=O (stereo not shown) [Compound 81, 3-acetyl-5,8-difluoro-2-(((5-(trifluoromethyl)furan-2-yl)methyl)sulfinyl)quinolin-4(1H)-one] |
| > 2 |  |  |  |  |  |  |  |  |  | > 2 | > 2 | > 2 | > 2 | > 2 | > 10 | > 2 | > 2 | > 2 | > 2 | CC(=O)c1c([S+]([O-])Cc2cc(C)on2)[nH]c2c(F)ccc(F)c2c1=O (stereo not shown) [Compound 82, 3-acetyl-5,8-difluoro-2-(((5-methylisoxazol-3-yl)methyl)sulfinyl)quinolin-4(1H)-one] |
| > 2 |  |  |  |  |  |  |  |  |  | > 2 | > 2 | > 2 | > 2 | > 2 | > 10 | > 2 | > 2 | > 2 | > 2 | CC(C)C(=O)c1c([S+]([O-])Cc2ccc(SC(F)(F)F)cc2)[nH]c2c(F)ccc(F)c2c1=O (stereo not shown) [Compound 85, 5,8-difluoro-3-isobutyryl-2-((4-((trifluoromethyl)thio)benzyl)sulfinyl)quinolin-4(1H)-one] |
| > 2 |  |  |  |  |  |  |  |  |  | > 2 | > 2 | > 2 | > 2 | > 2 | > 10 | > 2 | > 2 | > 2 | > 2 | O=C(c1ccccc1)c1c([S+]([O-])Cc2ccc(S(F)(F)(F)(F)F)cc2)[nH]c2c(F)ccc(F)c2c1=O (stereo not shown) [Compound 87, 3-benzoyl-5,8-difluoro-2-((4-(pentafluoro--sulfanyl)benzyl)sulfinyl)quinolin-4(1H)-one] |
| > 2 |  |  |  |  |  |  |  |  |  | > 2 | > 2 | > 2 | > 2 | > 2 | > 10 | > 2 | > 2 | > 2 | > 2 | Cc1cc(C[S+]([O-])c2[nH]c3c(Cl)ccc(Cl)c3c(=O)c2C(=O)c2ccccc2)no1 (stereo not shown) [Compound 88, 3-benzoyl-5,8-dichloro-2-(((5-methylisoxazol-3-yl)methyl)sulfinyl)quinolin-4(1H)-one] |
| > 2 |  |  |  |  |  |  |  |  |  | > 2 | > 2 | > 2 | > 2 | > 2 | > 10 | > 2 | > 2 | > 2 | > 2 | CC(=O)c1c([S+]([O-])CN2C(=O)c3ccccc3C2=O)[nH]c2c(Cl)ccc(Cl)c2c1=O (stereo not shown) [Compound 90, 2-(((3-acetyl-5,8-dichloro-4-oxo-1,4-dihydroquinolin-2-yl)sulfinyl)methyl)isoindoline-1,3-dione] |
| 1.74 |  |  |  |  |  |  |  |  |  | > 2 | 1.82 | > 2 | > 2 | > 2 | > 10 | > 2 | 1.41 | > 2 | > 2 | COC(=O)c1ccc(C[S+]([O-])c2[nH]c3c(Cl)ccc(Cl)c3c(=O)c2C(C)=O)cc1 (stereo not shown) [Compound 91, methyl 4-(((3-acetyl-5,8-dichloro-4-oxo-1,4-dihydroquinolin-2-yl)sulfinyl)methyl)benzoate] |
| > 2 |  |  |  |  |  |  |  |  |  | > 2 | > 2 | > 2 | > 2 | > 2 | > 10 | > 2 | > 2 | > 2 | > 2 | COc1cccc2[nH]c(SCc3ccc(S(F)(F)(F)(F)F)cc3)c(C(C)=O)c(=O)c12 [Compound 92, 3-acetyl-5-methoxy-2-((4-(pentafluoro--sulfanyl)benzyl)thio)quinolin-4(1H)-one] |

From patent publication US11464770B2, “Anticancer pharmaceutical composition” (NATIONAL CANCER CENTER, priority 2016, dated 2022)
